In publication PMC7712530 (Nucleosides, nucleotides & nucleic acids, 2015):

Columns and labels:
MT-4 cells = assay: Cytotoxicity assay; format: cell-based; details: for cytotoxicity (in words): text: toward HepG2 cells, table head and method say MT-4
HBV [1] = assay: Anti-HBV assay in HepG2 2.2.15 cells; format: cell-based; details: for EC50: Hepatitis B virus, HepG2 2.2.15, 144 h, read-out: EC50 anti-HBV activity
HBV [2] = details: relative to entecavir 1; ref 3a; cited from earlier work

Molecule	cytotoxicity (in words) (MT-4 cells)	EC50 (HBV [1])	also measured
9-[Bis-O-(pivaloyoxymethyl)phosphorylmethoxy]allyl]guanine [Compound 8]	cytotoxicity toward HepG2 cells was also observed		
C=C(CCO)Cn1cnc2c(=O)[nH]c(N)nc21 [Compound 6, 2-Amino-9-(4-hydroxy-2-methylenebutyl)-1H-purin-6(9H)-one]	nor display any cytotoxicity	> 1000 nM	anti-HBV activity (in words) (HBV [1]; HepG2 2.2.15 cells): neither exhibit anti-HBV activity
C=C1[C@H](CO)[C@@H](O)C[C@@H]1n1cnc2c(=O)[nH]c(N)nc21 [Entecavir, entecavir, reference compound]		0.77 nM	
Nc1nc2c(ncn2[C@H]2C[C@@H](CO)[C@H](O)C2)c(=O)[nH]1 [carbocyclic dG]			potency, times less than that of entecavir (1) (HBV [2]): 10 times
CC(C)(C)C(=O)O [pivalic acid, reference compound]			concentration up to which no cytotoxicity was shown (MT-4 cells; in this assay system): > 100 µM
